Source: PMC6272192, “Synthesis and Biological Evaluation of N-Alkyl-3-(alkylamino)-pyrazine-2-carboxamides” (Molecules, 2015)
Values after ≈ are worked out from the molar mass of the structure shown.

Key:
[1] = system: aromatic amino acids in spinach chloroplasts; test: fluorescence of aromatic amino acids in spinach chloroplasts; format: biochemical, Spinacia oleracea L.; settings: excitation 275 nm, chlorophyll 10 mg/L
Procedure: The fluorescence emission spectra of aromatic amino acids (AAA) in spinach chloroplasts were recorded on fluorescence spectrophotometer F-2000 (Hitachi, Tokyo, Japan) using excitation wavelength λex = 275 nm for monitoring AAA fluorescence, excitation slit 20 nm and emission slit 10 nm. The samples were kept in the dark for 2 min before measuring. The phosphate buffer used for dilution of the chloroplast suspension was the same as described above. Due to low aqueous solubility the compounds were added to chloroplast suspension in DMSO solution. The DMSO concentration in all samples was the same as in the control (10%). The chlorophyll concentration in chloroplast suspension was 10 mg/L.

[2] = determination of lipophilicity by HPLC (log k); settings: HPLC capacity factor, C18 column, MeOH 70% / H2O 30%
Excerpt: Instrumentation: Agilent Technologies 1200 SL liquid chromatograph with Diode-array Detector SL G1315C (Agilent Technologies Inc., Colorado Springs, CO, USA); pre-column ZORBAX XDB-C18 5 μm, 4 × 4 mm, Part No. 7995118-504 (Agilent Technologies Inc.) and column ZORBAX Eclipse XDB-C18 5 μm, 4.6 × 250 mm, Part No. 7995118-585 (Agilent Technologies Inc.). The separation process was controlled by Agilent ChemStation, version B.04.02 extended by spectral module (Agilent Technologies Inc.). Mobile phase consisted of MeOH (HPLC grade, 70%) and H2O (HPLC-Milli-Q Grade, 30%). Conditions: Flow rate 1.0 mL/min, sample injection volume 20 μL, column temperature 30 °C, detection wavelength 210 nm, monitor wavelength 270 nm. Retention times (tR) were measured in minutes. The dead time of the system (tD) was determined as the retention time of KI methanol solution. Capacity factors k for individual compounds were calculated according to the formula k = (tR − tD)/tD. Log k, calculated from the capacity factor k, is used as the lipophilicity index converted to log scale.

[3] = system: Staphylococcus aureus; test: in vitro antibacterial activity, microdilution broth method; format: cell-based
Procedure: Microdilution broth method. Antibacterial evaluation was performed against bacterial strains from Czech Collection of Microorganisms (Brno, Czech Republic) (Staphylococcus aureus CCM 4516/08, Escherichia coli CCM 4517, Pseudomonas aeruginosa CCM 1961) or clinical isolates from Department of Clinical Microbiology, University Hospital and Faculty of Medicine in Hradec Králové, Charles University in Prague, Czech Republic (Staphylococcus aureus H 5996/08-methicilin resistant (MRSA), Staphylococcus epidermidis H 6966/08, Enterococcus sp. J 14365/08, Klebsiella pneumoniae D 11750/08, Klebsiella pneumoniae J 14368/08-ESBL positive). All strains were subcultured on Mueller-Hinton agar (MHA) (Difco/Becton Dickinson, Detroit, MI, USA) at 35 °C and maintained on the same medium at 4 °C. The compounds were dissolved in DMSO, and the antibacterial activity was determined in Mueller-Hinton liquid broth (Difco/Becton Dickinson), buffered to pH 7.0. Controls consisted of medium and DMSO alone. […] The standards were neomycin, bacitracin, penicillin G, ciprofloxacin and phenoxymethylpenicilin.

[4] = system: photosystem 2 photosynthetic electron transport (PET) in spinach chloroplasts; test: inhibition of photosynthetic electron transport (PET) in spinach chloroplasts (Hill reaction, DCPIP); format: biochemical, Spinacia oleracea L.; settings: spinach chloroplasts, DCPIP photoreduction; read-out: IC50 (PET-inhibiting activity)
Procedure: Chloroplasts were prepared from spinach (Spinacia oleracea L.) according to Masarovicova and Kralova. The inhibition of photosynthetic electron transport (PET) in spinach chloroplasts was determined spectrophotometrically (Genesys 6, Thermo Electron Scientific Instruments, Madison, WI, USA), using an artificial electron acceptor 2,6-dichlorophenol-indophenol (DCPIP) according to Kralova et al., and the rate of photosynthetic electron transport (PET) was monitored as a photoreduction of DCPIP. The measurements were carried out in phosphate buffer (0.02 mol/L, pH 7.2) containing sucrose (0.4 mol/L), MgCl2 (0.005 mol/L) and NaCl (0.015 mol/L). The chlorophyll content was 30 mg/L in these experiments and the samples were irradiated (~100 W/m^2 with 10 cm distance) with a halogen lamp (250 W) using a 4 cm water filter to prevent warming of the samples (suspension temperature 22 °C). The studied compounds were dissolved in DMSO due to their limited water solubility. […] The inhibitory efficiency of the studied compounds was expressed by IC50 values, i.e., by molar concentration of the compounds causing 50% PET inhibition relative to the untreated control.

[5] = system: M. tuberculosis H37Rv; test: in vitro antimycobacterial activity, microdilution panel method; format: cell-based, Mycobacterium tuberculosis; settings: Mycobacterium tuberculosis, 336 h, Middlebrook 7H9, Alamar Blue after 14 days, read-out: MIC M. tuberculosis

SMILES	slope of dependence of aromatic amino acid fluorescence intensity (% of control) on compound concentration [1]	log k [2]	MIC [3] [µM]	IC50 [4] [µM]	MIC [5] [µg/mL]
CCCCCCCCNc1nccnc1C(=O)NC [Compound 16, N-Methyl-3-(octylamino)pyrazine-2-carboxamide]	−0.668	1.359	250 (≈ 66.1 µg/mL)	64	25 (≈ 94.6 µM)
CCCCCNC(=O)c1nccnc1NCCCCC [Compound 27, N-Pentyl-3-(pentylamino)pyrazine-2-carboxamide]	−0.211	1.557		105	> 100
